Assay results as given in US12336977B2, “Nitenin analogue compounds and their use in the treatment of chronic and acute pain” (SEA4US-BIOTECNOLOGIA E RECURSOS MARINHOS, LDA., priority 2019, dated 2025).

Columns and labels:
[1] = system: K+ currents of small diameter dorsal-root ganglion neuron; test: voltage dependence of steady state of inactivation of K+ currents in sdDRGn; assay type: cell-based, rat; details: sdDRGn
Source text: (§1) One can observe a shift to hyperpolarized values during the nitenin treatment. The relationships were better fit with the sum of two Boltzmann functions, showing that in both conditions there are two components: one more hyperpolarized component (component 1) and one other more depolarized component (component 2).
as §1, with “treatment with the compound of formula VI.” for “nitenin treatment.”
as §1, with “treatment with the compound of formula VII.” for “nitenin treatment.”
as §1, with “treatment with the compound of formula VIII.” for “nitenin treatment.”
For the electrophysiological recordings of the ex vivo material, voltage-clamp recordings were performed on neurons isolated from rat DRGs (and TGs). Recordings were performed from the soma that often contained the proximal fraction of axon, 1 hour after the end of the cell isolation process (includes enzymatic and mechanical treatment).

[2] = system: voltage activated K+ currents (Islow, Ifast) of small diameter Dorsal Root Ganglia neurons (sdDRGns); test: whole-cell voltage-clamp of voltage activated K+ currents in sdDRGns; assay type: cell-based, rat

## C=CC1OC(=O)CC1O (centres unmarked) [compound of formula VI]
[1]; 10 μg/ml, 77.9 μM, control −23.9
  Vh2 of steady state inactivation: −40.5 mV
[1]; 10 μg/ml, 77.9 μM, control −91.0
  Vh1 of steady state inactivation: −102.9 mV
[2]; 10 μg/ml, 77.9 μM
  time constant τ of the sensitive current (current subtraction, single-exponential fit): ~795 ms

## O=C1OC(CO)CC1=CCCc1ccoc1 (centres unmarked) [compound of formula VIII-A]
[1]; 6.5 μg/ml, 29.4 μM, control −18.1
  Vh2 of steady state inactivation: −35.5 mV
[1]; 6.5 μg/ml, 29.4 μM, control −53.6
  Vh1 of steady state inactivation: −88.9 mV
[2]; 6.5 μg/ml, 29.4 μM
  time constant τ of the sensitive current (current subtraction, single-exponential fit): ~450 ms

## C/C(=C\C1OC(=O)CC1O)CCCc1ccoc1 (centres unmarked) [compound of formula VII]
[1]; 0.1 μg/ml, 399 nM, control −13.7
  Vh2 of steady state inactivation: −32.4 mV
[1]; 0.1 μg/ml, 399 nM, control −64.1
  Vh1 of steady state inactivation: −92.6 mV
